Experimental data reported in ChEMBL document CHEMBL2396621, “Design, synthesis and biological evaluation of 2-mercapto-3-phenethylquinazoline bearing anilide fragments as potential antitumor agents: molecular docking study” (2013).

Legend:
Type in all cases: functional
SK-OV-3 = assay: Cytotoxicity against human SKOV3 cells assessed as growth inhibition at 10 uM after 48 hrs by coulter counter analysis; conditions: SK-OV-3, 48 h, read-out: GI
IGROV-1 = assay: Cytotoxicity against human IGROV1 cells assessed as growth inhibition at 10 uM after 48 hrs by coulter counter analysis; conditions: IGROV-1, 48 h, read-out: GI
COLO 205 = assay: Cytotoxicity against human COLO205 cells assessed as growth inhibition at 10 uM after 48 hrs by coulter counter analysis; conditions: COLO 205, 48 h, read-out: GI
PC-3 = assay: Cytotoxicity against human PC3 cells assessed as growth inhibition at 10 uM after 48 hrs by coulter counter analysis; conditions: PC-3, 48 h, read-out: GI
HCC 2998 = assay: Cytotoxicity against human HCC2998 cells assessed as growth inhibition at 10 uM after 48 hrs by coulter counter analysis; conditions: HCC 2998, 48 h, read-out: GI
SNB-75 = assay: Cytotoxicity against human SNB75 cells assessed as growth inhibition at 10 uM after 48 hrs by coulter counter analysis; conditions: SNB-75, 48 h, read-out: GI
A549 = assay: Cytotoxicity against human A549 cells assessed as growth inhibition at 10 uM after 48 hrs by coulter counter analysis; conditions: A549, 48 h, read-out: GI
OVCAR-3 = assay: Cytotoxicity against human OVCAR3 cells assessed as growth inhibition at 10 uM after 48 hrs by coulter counter analysis; conditions: OVCAR-3, 48 h, read-out: GI
NCI-H460 = assay: Cytotoxicity against human NCI-H460 cells assessed as growth inhibition at 10 uM after 48 hrs by coulter counter analysis; conditions: NCI-H460, 48 h, read-out: GI
MDA-MB-435 = assay: Cytotoxicity against human MDA-MB-435 cells assessed as growth inhibition at 10 uM after 48 hrs by coulter counter analysis; conditions: MDA-MB-435, 48 h, read-out: GI
KM12 = assay: Cytotoxicity against human KM12 cells assessed as growth inhibition at 10 uM after 48 hrs by coulter counter analysis; conditions: KM12, 48 h, read-out: GI
A498 = assay: Cytotoxicity against human A498 cells assessed as growth inhibition at 10 uM after 48 hrs by coulter counter analysis; conditions: A498, 48 h, read-out: GI
CAKI-1 = assay: Cytotoxicity against human Caki1 cells assessed as growth inhibition at 10 uM after 48 hrs by coulter counter analysis; conditions: CAKI-1, 48 h, read-out: GI
HCT-15 = assay: Cytotoxicity against human HCT15 cells assessed as growth inhibition at 10 uM after 48 hrs by coulter counter analysis; conditions: HCT-15, 48 h, read-out: GI
SF-539 = assay: Cytotoxicity against human SF539 cells assessed as growth inhibition at 10 uM after 48 hrs by coulter counter analysis; conditions: SF-539, 48 h, read-out: GI
TK-10 = assay: Cytotoxicity against human TK10 cells assessed as growth inhibition at 10 uM after 48 hrs by coulter counter analysis; conditions: TK-10, 48 h, read-out: GI
NCI-H522 = assay: Cytotoxicity against human NCI-H522 cells assessed as growth inhibition at 10 uM after 48 hrs by coulter counter analysis; conditions: NCI-H522, 48 h, read-out: GI
SK-MEL-5 = assay: Cytotoxicity against human SK-MEL-5 cells assessed as growth inhibition at 10 uM after 48 hrs by coulter counter analysis; conditions: SK-MEL-5, 48 h, read-out: GI
DU-145 = assay: Cytotoxicity against human DU145 cells assessed as growth inhibition at 10 uM after 48 hrs by coulter counter analysis; conditions: DU-145, 48 h, read-out: GI
MCF7 = assay: Cytotoxicity against human MCF7 cells assessed as growth inhibition at 10 uM after 48 hrs by coulter counter analysis; conditions: MCF7, 48 h, read-out: GI
HCT-116 = assay: Cytotoxicity against human HCT116 cells assessed as growth inhibition at 10 uM after 48 hrs by coulter counter analysis; conditions: HCT-116, 48 h, read-out: GI
MDA-MB-231 = assay: Cytotoxicity against human MDA-MB-231 cells assessed as growth inhibition at 10 uM after 48 hrs by coulter counter analysis; conditions: MDA-MB-231, 48 h, read-out: GI
MDA-MB-468 = assay: Cytotoxicity against human MDA-MB-468 cells assessed as growth inhibition at 10 uM after 48 hrs by coulter counter analysis; conditions: MDA-MB-468, 48 h, read-out: GI
OVCAR-5 = assay: Cytotoxicity against human OVCAR5 cells assessed as growth inhibition at 10 uM after 48 hrs by coulter counter analysis; conditions: OVCAR-5, 48 h, read-out: GI
Malme-3M = assay: Cytotoxicity against human MALME-3M cells assessed as growth inhibition at 10 uM after 48 hrs by coulter counter analysis; conditions: read-out: GI
UO-31 = assay: Cytotoxicity against human UO31 cells assessed as growth inhibition at 10 uM after 48 hrs by coulter counter analysis; conditions: UO-31, 48 h, read-out: GI
786-0 = assay: Cytotoxicity against human 786-0 cells assessed as growth inhibition at 10 uM after 48 hrs by coulter counter analysis; conditions: 786-0, 48 h, read-out: GI
T47D = assay: Cytotoxicity against human T47D cells assessed as growth inhibition at 10 uM after 48 hrs by coulter counter analysis; conditions: read-out: GI
UACC-257 = assay: Cytotoxicity against human UACC257 cells assessed as growth inhibition at 10 uM after 48 hrs by coulter counter analysis; conditions: UACC-257, 48 h, read-out: GI
[1] = Cytotoxicity against human NCI-ADR-RES cells assessed as growth inhibition at 10 uM after 48 hrs by coulter counter analysis; conditions: read-out: GI
SW-620 = assay: Cytotoxicity against human SW620 cells assessed as growth inhibition at 10 uM after 48 hrs by coulter counter analysis; conditions: SW-620, 48 h, read-out: GI
OVCAR-8 = assay: Cytotoxicity against human OVCAR8 cells assessed as growth inhibition at 10 uM after 48 hrs by coulter counter analysis; conditions: OVCAR-8, 48 h, read-out: GI
RXF 393 = assay: Cytotoxicity against human RXF393 cells assessed as growth inhibition at 10 uM after 48 hrs by coulter counter analysis; conditions: RXF 393, 48 h, read-out: GI
LOX IMVI = assay: Cytotoxicity against human LOXIMVI cells assessed as growth inhibition at 10 uM after 48 hrs by coulter counter analysis; conditions: read-out: GI
SF-295 = assay: Cytotoxicity against human SF295 cells assessed as growth inhibition at 10 uM after 48 hrs by coulter counter analysis; conditions: SF-295, 48 h, read-out: GI
SNB-19 = assay: Cytotoxicity against human SNB19 cells assessed as growth inhibition at 10 uM after 48 hrs by coulter counter analysis; conditions: SNB-19, 48 h, read-out: GI
BT-549 = assay: Cytotoxicity against human BT549 cells assessed as growth inhibition at 10 uM after 48 hrs by coulter counter analysis; conditions: BT-549, 48 h, read-out: GI

Compound	inhibition of growth at 10 µM (SK-OV-3) [%]	inhibition of growth at 10 µM (IGROV-1) [%]	inhibition of growth at 10 µM (COLO 205) [%]	inhibition of growth at 10 µM (PC-3) [%]	inhibition of growth at 10 µM (HCC 2998) [%]	inhibition of growth at 10 µM (SNB-75) [%]	inhibition of growth at 10 µM (A549) [%]	inhibition of growth at 10 µM (OVCAR-3) [%]	inhibition of growth at 10 µM (NCI-H460) [%]	inhibition of growth at 10 µM (MDA-MB-435) [%]	inhibition of growth at 10 µM (KM12) [%]	inhibition of growth at 10 µM (A498) [%]	inhibition of growth at 10 µM (HCT-15) [%]	inhibition of growth at 10 µM (SF-539) [%]	inhibition of growth at 10 µM (TK-10) [%]	inhibition of growth at 10 µM (NCI-H522) [%]	inhibition of growth at 10 µM (SK-MEL-5) [%]	inhibition of growth at 10 µM (MCF7) [%]	inhibition of growth at 10 µM (HCT-116) [%]	inhibition of growth at 10 µM (MDA-MB-231) [%]	further results
O=C(CSc1nc2ccccc2c(=O)n1CCc1ccccc1)Nc1ccc(Cl)cc1	43	36	15	30	< 10	63	16	32	32	13	14	< 10	16	41	19	45	22	30	23	37	inhibition of growth at 10 µM (CAKI-1): 42%; inhibition of growth at 10 µM (DU-145): 12%; inhibition of growth at 10 µM (MDA-MB-468): 36%; inhibition of growth at 10 µM (OVCAR-5): < 10%; inhibition of growth at 10 µM (Malme-3M): < 10%; inhibition of growth at 10 µM (UO-31): 28%; inhibition of growth at 10 µM (786-0): 13%; inhibition of growth at 10 µM (T47D): 56%; inhibition of growth at 10 µM (UACC-257): 18%; inhibition of growth at 10 µM [1]: 21%; inhibition of growth at 10 µM (SW-620): 11%; inhibition of growth at 10 µM (OVCAR-8): 39%; inhibition of growth at 10 µM (RXF 393): 22%; inhibition of growth at 10 µM (LOX IMVI): 23%; inhibition of growth at 10 µM (SF-295): 32%; inhibition of growth at 10 µM (SNB-19): 30%
COc1cc(NC(=O)CSc2nc3ccccc3c(=O)n2CCc2ccccc2)cc(OC)c1OC	> 100	92	71	59	66	> 100	76	> 100	> 100	> 100	93	> 100	11	> 100	> 100	> 100	> 100	49	> 100	> 100	inhibition of growth at 10 µM (BT-549): > 100%; inhibition of growth at 10 µM (DU-145): 55%; inhibition of growth at 10 µM (MDA-MB-468): 71%; inhibition of growth at 10 µM (OVCAR-5): 35%; inhibition of growth at 10 µM (Malme-3M): 59%; inhibition of growth at 10 µM (UO-31): > 100%; inhibition of growth at 10 µM (786-0): > 100%; inhibition of growth at 10 µM (T47D): > 100%; inhibition of growth at 10 µM (UACC-257): 61%; inhibition of growth at 10 µM [1]: 64%; inhibition of growth at 10 µM (SW-620): 52%; inhibition of growth at 10 µM (OVCAR-8): 70%; inhibition of growth at 10 µM (RXF 393): 55%; inhibition of growth at 10 µM (LOX IMVI): 70%; inhibition of growth at 10 µM (SF-295): 49%; inhibition of growth at 10 µM (SNB-19): 73%
O=C(CSc1nc2ccccc2c(=O)n1CCc1ccccc1)Oc1ccccc1	28	10	< 10	14	< 10	28	12	< 10	14	19	< 10	18	< 10	< 10	< 10	37	< 10	15	21	15	inhibition of growth at 10 µM (BT-549): < 10%; inhibition of growth at 10 µM (CAKI-1): < 10%; inhibition of growth at 10 µM (MDA-MB-468): < 10%; inhibition of growth at 10 µM (OVCAR-5): < 10%; inhibition of growth at 10 µM (Malme-3M): 16%; inhibition of growth at 10 µM (UO-31): 16%; inhibition of growth at 10 µM (786-0): 13%; inhibition of growth at 10 µM (T47D): 14%; inhibition of growth at 10 µM (UACC-257): 11%; inhibition of growth at 10 µM [1]: 22%; inhibition of growth at 10 µM (SW-620): < 10%; inhibition of growth at 10 µM (OVCAR-8): 23%; inhibition of growth at 10 µM (RXF 393): < 10%; inhibition of growth at 10 µM (LOX IMVI): 16%; inhibition of growth at 10 µM (SF-295): 20%; inhibition of growth at 10 µM (SNB-19): < 10%
O=C(CSc1nc2ccccc2c(=O)n1CCc1ccccc1)Oc1ccc(Cl)cc1	28	15	< 10	25	< 10	28	< 10	< 10	< 10	< 10	< 10	10	25	< 10	< 10	37	< 10	34	< 10	33	inhibition of growth at 10 µM (BT-549): 15%; inhibition of growth at 10 µM (CAKI-1): 27%; inhibition of growth at 10 µM (DU-145): < 10%; inhibition of growth at 10 µM (MDA-MB-468): < 10%; inhibition of growth at 10 µM (OVCAR-5): < 10%; inhibition of growth at 10 µM (Malme-3M): < 10%; inhibition of growth at 10 µM (UO-31): < 10%; inhibition of growth at 10 µM (786-0): < 10%; inhibition of growth at 10 µM (T47D): 14%; inhibition of growth at 10 µM (UACC-257): < 10%; inhibition of growth at 10 µM [1]: 10%; inhibition of growth at 10 µM (SW-620): < 10%; inhibition of growth at 10 µM (OVCAR-8): < 10%; inhibition of growth at 10 µM (RXF 393): < 10%; inhibition of growth at 10 µM (LOX IMVI): 14%; inhibition of growth at 10 µM (SF-295): < 10%; inhibition of growth at 10 µM (SNB-19): < 10%
